Among the test systems are ACHN renal; KM12 colon; RXF 393 renal; A549 NSCLC; TK-10 renal; MALME-3M melanoma; UACC-62 melanoma; SNB-75 CNS; HCT-15 colon; NCI-H460 lung.
Common to all, as to assay: NCI-60 cell line screen, 48 h

Values joined by “and” are separate entries in the source; they are usually repeats but may differ in a detail not shown here. Equal entries are not always repeated.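 Exposure lasted 48 hours, with cells grown in 96-well plates and compounds tested at five concentrations. At the GI50, growth is halved. TGI marks complete inhibition of growth.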

For the compound `CC(=O)Oc1ccc(OC(C)=O)c2ccccc12`, the GI50 is 6.37 µM in the assay on ACHN renal; 10.9 µM in the assay with KM12 colon; 7.57 µM in the assay with RXF 393 renal; 34.9 µM with A549 NSCLC; 17.2 µM in the assay on TK-10 renal; 14 µM in the assay with MALME-3M melanoma. The GI50 with UACC-62 melanoma is 6.94 µM; with SNB-75 CNS it was 14 µM; in the assay on HCT-15 colon, 14.3 µM; with NCI-H460 lung, 29.1 µM. The TGI is 19.2 µM in the assay with ACHN renal; 23.4 µM with KM12 colon; 20.2 µM in the assay with RXF 393 renal; above 100 µM with A549 NSCLC; 31.5 µM with TK-10 renal; 33 µM with MALME-3M melanoma. Further, the TGI was 19.9 µM in the assay with UACC-62 melanoma, 27.7 µM in the assay on SNB-75 CNS, 34.5 µM in the assay on HCT-15 colon and above 100 µM in the assay with NCI-H460 lung.

Take `CN(C)c1ccc(/C=C2\C[C@H]3[C@@H]4CC=C5C[C@@H](N6CCCC6)CC[C@]5(C)[C@H]4CC[C@]3(C)[C@H]2O)cc1`: the GI50 in the assay on ACHN renal was 1.82 µM; in the assay on KM12 colon it was 5.48 µM; with RXF 393 renal it was 3.47 µM; with A549 NSCLC it was 3.79 µM; in the assay on TK-10 renal it was 3.76 µM; with MALME-3M melanoma it was 2.55 µM. Further, the GI50 in the assay on UACC-62 melanoma was 2 µM; in the assay on SNB-75 CNS, 3.4 µM; in the assay on HCT-15 colon, 3.43 µM; in the assay on NCI-H460 lung, 2.37 µM. For the same compound, the TGI in the assay on ACHN renal was 1.71 µM and 3.34 µM; in the assay on KM12 colon, 10.7 µM and 50.9 µM; with RXF 393 renal, 2.65 µM and 12.3 µM; in the assay with A549 NSCLC it was 4.41 µM and 15.3 µM; in the assay on TK-10 renal, 3.17 µM and 11.7 µM; in the assay with MALME-3M melanoma it was 1.69 µM and 8.35 µM. Also, the TGI is 1.6 µM and 4.05 µM with UACC-62 melanoma; 3.01 µM and 14.9 µM in the assay with SNB-75 CNS; 5.51 µM and 22.3 µM in the assay with HCT-15 colon; 5.08 µM and 5.52 µM in the assay with NCI-H460 lung.

Take `c1ccc2c(CNCCCCCCNCc3cccc4ccccc34)cccc2c1`: the TGI with ACHN renal stood at 29.5 µM; in the assay with KM12 colon it was 15.1 µM; in the assay with RXF 393 renal, 6.9 µM; in the assay on A549 NSCLC, 32.3 µM; in the assay with TK-10 renal, 25.2 µM; in the assay on MALME-3M melanoma, 3.42 µM. Moreover, the TGI with UACC-62 melanoma is 21.6 µM; in the assay on SNB-75 CNS, 6.68 µM; in the assay with HCT-15 colon it was 19.8 µM; with NCI-H460 lung it was 3.75 µM.

Regarding `CC(=O)OCC1OC(OC2C(COC(C)=O)OC(OCCC[S-])C(OC(C)=O)C2OC(C)=O)C(OC(C)=O)C(OC(C)=O)C1OC(C)=O.[Au+].c1ccc(CN2[CH-]N(Cc3ccccc3)C(c3ccccc3)=C2c2ccccc2)cc1` (stereo not given), the GI50 in the assay on ACHN renal was 2.9 µM; in the assay on KM12 colon, 3.8 µM; in the assay with RXF 393 renal, 3.28 µM; in the assay with A549 NSCLC, 4.29 µM; in the assay on TK-10 renal, 3.57 µM; in the assay on MALME-3M melanoma, 2.19 µM. Also, the GI50 in the assay with UACC-62 melanoma is 2.63 µM; with SNB-75 CNS, 2.86 µM; in the assay with HCT-15 colon, 3.17 µM; in the assay on NCI-H460 lung, 3.45 µM. In addition, the TGI in the assay on ACHN renal worked out at 10.6 µM; with KM12 colon it was 16.1 µM; in the assay with RXF 393 renal, 12.3 µM; in the assay with A549 NSCLC it was 25 µM; in the assay on TK-10 renal it was 14.8 µM; in the assay on MALME-3M melanoma, 6.56 µM. In addition, the TGI worked out at 8.96 µM with UACC-62 melanoma, 17 µM in the assay on SNB-75 CNS, 12.2 µM with HCT-15 colon and 12.8 µM in the assay with NCI-H460 lung.

In the case of `CC(C)[C@@H]1C=C(c2ccccc2)c2ccccc2C1C(C#N)(C#N)C(C)C` (stereo not given in full), the TGI in the assay with ACHN renal, in the assay with KM12 colon, with RXF 393 renal, in the assay with A549 NSCLC, with TK-10 renal and in the assay on MALME-3M melanoma was above 100 µM in each case. Also, the TGI with UACC-62 melanoma, in the assay with SNB-75 CNS, in the assay on HCT-15 colon and in the assay on NCI-H460 lung was above 100 µM in each case.

Turning to `Cc1ccc2c(c1)C(=O)c1c-2n(CCCN)c(=O)c2cc([N+](=O)[O-])ccc12`, the GI50 in the assay on ACHN renal is 0.106 µM; in the assay on KM12 colon it was 0.433 µM; in the assay on RXF 393 renal, 0.627 µM; with A549 NSCLC, 0.2 µM; with TK-10 renal it was 0.567 µM; in the assay with MALME-3M melanoma, 0.752 µM. In addition, the GI50 in the assay on UACC-62 melanoma was 0.522 µM; in the assay with SNB-75 CNS, 0.385 µM; with HCT-15 colon, 0.351 µM; in the assay with NCI-H460 lung it was 0.0349 µM. In addition, the TGI with ACHN renal turned out to be 0.609 µM; in the assay on KM12 colon, 1.23 µM; in the assay with RXF 393 renal it was 1.31 µM; with A549 NSCLC it was 0.887 µM; with TK-10 renal, 1.24 µM; with MALME-3M melanoma it was 1.71 µM. Also, the TGI turned out to be 1.11 µM in the assay with UACC-62 melanoma, 1.07 µM in the assay with SNB-75 CNS, 1.01 µM with HCT-15 colon and 0.629 µM with NCI-H460 lung.

The values above are taken from PubChem BioAssay (NCI).
